Numbered stars: 1 amine (or outer) side, 2 acyl side, 3 side chain; on linkers, the order of the positions; unused ones are H or OH. Square brackets hold non-standard residues; d marks the D form. Peptide text beside a SMILES is read from it. * marks the point of attachment. ξ: configuration not given here. X1 = O=C(O)CCCc1cc2c(O[C@@H]3O[C@H](CO)[C@H](O)[C@H](O)[C@H]3O)ccc(COC(=O)*)c2o1; X3 = O=C(O)c1cc2c(O[C@@H]3O[C@H](CO)[C@H](O)[C@H](O)[C@H]3O)ccc(COC(=O)*)c2[se]1; X2 = O=C(O)CCc1cc2c(O[C@@H]3O[C@H](CO)[C@H](O)[C@H](O)[C@H]3O)ccc(COC(=O)*)c2s1; X4 = O=C(O)c1cc2c(O[C@@H]3O[C@H](CO)[C@H](O)[C@H](O)[C@H]3O)ccc(COC(=O)*)c2o1; Dil(5ξ) = CCC(C)[C@@H]([C@@H](CC(=O)[*:2])OC)N(C)[*:1]; Dolaproine = CO[C@@H]([C@@H]1CCCN1)[C@@H](C)C(=O)O; NMeV = CN[C@H](C(=O)O)C(C)C; ξF = NC(Cc1ccccc1)C(=O)O Where only a bound is given, the exact number is not on record here.

Data set [1] is described as follows: Beagle dog plasma stability (Method 4). It is filed as in vitro ADME. As to conditions: Method 4 (beagle dog plasma), 37° C.; read-out: Plasma stability t1/2. The procedure: Method 4: Beagle Dog Plasma Stability
(§1) The compounds of the present invention (A-22, A-69) and MPS, used as a standard material, were each dissolved in DMSO and a PBS buffer solution to a concentration of 30 mM, and then mixed in beagle dog plasma (Biochemed, 014-APSC-PMG) to a final concentration of 300 μM (final 1.0% DMSO) and 600 μM of the compounds and MPS, respectively. The reaction of the mixed solution in plasma was initiated in a constant temperature incubator at 37° C. Before the reaction and on certain days after the reaction, the above samples were aliquoted in an amount of 100 μL, and 200 μL of ACN was added to terminate the reaction, mixed, and then vortexed for about 1 minute, and then centrifuged at 4° C. for 15 minutes at 14,000 rpm to precipitate plasma proteins. Each supernatant obtained by centrifugation was collected and quantitatively analyzed using the HPLC method.
(§2) The results of measuring the plasma half-life of the compounds of the present invention using Methods 1 to 4 above are shown in Table 3.

A short description of data set [2]: Mouse plasma stability (Method 1). In kind it is in vitro ADME. Particulars: Method 1 (mouse plasma), 37° C.; read-out: Plasma stability t1/2. On the procedure:
Method 1: Mouse Plasma Stability
as §1, with “(A-16, A-22, A-25, A-36,” for “(A-22,”, “mouse” for “beagle dog”, “029-APSC-PMG)” for “014-APSC-PMG)”, “acetonitrile (ACN, Sigma, SA-271004-1L)” for “ACN”, “centrifuged (Beckman, B30150)” for “centrifuged”
as §2

Data set [3] is described as follows: Chemical stability in PBS buffer solution (pH 7.4). It is filed as physicochemical. Particulars: 37° C., read-out: Chemical stability t1/2. On the procedure: The compounds of the present invention (A-15, A-16, A-19, A-21 to A-25, A-28, A-29, A-36 and A-69) were each dissolved in DMSO to a concentration of 10 mM and then mixed with a PBS buffer solution (pH 7.4) to prepare as a solution having a concentration of 500 μM (5% DMSO). MPS, used as a standard material, was also prepared as a solution having a concentration of 500 μM in a PBS buffer solution. 420 μL of a PBS buffer solution and […] of each of 500 μM compounds of the present invention and MPS were mixed to prepare a total of 700 μL of reaction solution. The reaction of the mixed solution was initiated in a constant temperature incubator at 37° C. The reaction solution was aliquoted in an amount of 70 μL at 0 minutes before the reaction and at certain times after the reaction, and the remaining compounds of the present invention or MPS or the liberated MMAF or MMAE were quantitatively analyzed using the HPLC method. […] In addition, the remaining amount of Compound A-69 in a PBS buffer solution (pH 7.4) according to the incubation time is shown in FIG. 5.

The nature of data set [4]: Human plasma stability (Method 2). It is filed as in vitro ADME. As to conditions: Method 2 (human plasma), 37° C.; read-out: Plasma stability t1/2. The procedure: Method 2: Human Plasma Stability
as §1, with “(A-19, A-22, A-25, A-36,” for “(A-22,”, “human” for “beagle dog”, “752PR-SC-PMG)” for “014-APSC-PMG)”
as §2

Data set [5] in a line: Rat plasma stability (Method 3). It is filed as in vitro ADME. As to conditions: Method 3 (rat plasma), 37° C.; read-out: Plasma stability t1/2. The procedure: Method 3: Rat Plasma Stability
as §1, with “rat” for “beagle dog”, “031-APSC-PMG)” for “014-APSC-PMG)”
as §2

For the molecule `CC[C@H](C)[C@@H]([C@@H](CC(=O)N1CCC[C@H]1[C@H](OC)[C@@H](C)C(=O)N[C@H](C)[C@@H](O)c1ccccc1)OC)N(C)C(=O)[C@@H](NC(=O)[C@H](C(C)C)N(C)C(=O)OCc1ccc(O[C@@H]2O[C@H](C(=O)O)[C@@H](O)[C@H](O)[C@H]2O)c2cc(Cn3cc(COCCOCCOCCOC)nn3)[se]c12)C(C)C` [Compound A-69], the half-life at 300 µM in data set [1], in data set [2], in data set [4] and in data set [5] was over 168 h each time. In data set [3], the half-life at 100 µM was over 168 h.
Regarding `CCC(C)[C@@H]([C@@H](CC(=O)N1CCC[C@H]1[C@H](OC)[C@@H](C)C(=O)NC(Cc1ccccc1)C(=O)O)OC)N(C)C(=O)[C@@H](NC(=O)[C@H](C(C)C)N(C)C(=O)OCc1ccc(O[C@@H]2O[C@H](CO)[C@H](O)[C@H](O)[C@H]2O)c2cc(CCC(=O)O)sc12)C(C)C` (some centres unmarked) [Compound A-16] (X2-[NMeV]V[Dil(5ξ)][Dolaproine][ξF]-OH), the half-life at 300 µM in data set [2] was over 168 h. In addition, the half-life at 100 µM in data set [3] was over 168 h.
Turning to `C#CCOCCOCCOCCOCC(=O)NCc1cc2c(O[C@@H]3O[C@H](CO)[C@H](O)[C@H](O)[C@H]3O)ccc(COC(=O)N(C)[C@H](C(=O)N[C@H](C(=O)N(C)[C@@H](C(C)CC)[C@@H](CC(=O)N3CCC[C@H]3[C@H](OC)[C@@H](C)C(=O)NC(Cc3ccccc3)C(=O)O)OC)C(C)C)C(C)C)c2o1` (some centres unmarked) [Compound A-28], the half-life at 100 µM in data set [3] is over 168 h.
The same measure, in the same setting: the figure for `C#CCOCCOCCOCCOCC(=O)NCc1cc2c(O[C@@H]3O[C@H](CO)[C@H](O)[C@H](O)[C@H]3O)ccc(COC(=O)N(C)[C@H](C(=O)N[C@H](C(=O)N(C)[C@@H](C(C)CC)[C@@H](CC(=O)N3CCC[C@H]3[C@H](OC)[C@@H](C)C(=O)NC(Cc3ccccc3)C(=O)O)OC)C(C)C)C(C)C)c2s1` (some centres unmarked) [Compound A-21] is over 168 h.
For `CCC(C)[C@@H]([C@@H](CC(=O)N1CCC[C@H]1[C@H](OC)[C@@H](C)C(=O)NC(Cc1ccccc1)C(=O)O)OC)N(C)C(=O)[C@@H](NC(=O)[C@H](C(C)C)N(C)C(=O)OCc1ccc(O[C@@H]2O[C@H](CO)[C@H](O)[C@H](O)[C@H]2O)c2cc(CCCC(=O)O)oc12)C(C)C` (some centres unmarked) [Compound A-22] (X1-[NMeV]V[Dil(5ξ)][Dolaproine][ξF]-OH), the half-life at 300 µM in data set [1], in data set [2], in data set [4] and in data set [5] was over 168 h throughout. In data set [3], the half-life at 100 µM was over 168 h.
Take `CCC(C)[C@@H]([C@@H](CC(=O)N1CCC[C@H]1[C@H](OC)[C@@H](C)C(=O)NC(Cc1ccccc1)C(=O)O)OC)N(C)C(=O)[C@@H](NC(=O)[C@H](C(C)C)N(C)C(=O)OCc1ccc(O[C@@H]2O[C@H](CO)[C@H](O)[C@H](O)[C@H]2O)c2cc(CCC(=O)NCCOCCOCCOCCN=[N+]=[N-])sc12)C(C)C` (some centres unmarked) [Compound A-15]: the half-life at 100 µM in data set [3] is over 168 h.
On the same count and under the same terms, in the case of `CCC(C)[C@@H]([C@@H](CC(=O)N1CCC[C@H]1[C@H](OC)[C@@H](C)C(=O)NC(Cc1ccccc1)C(=O)O)OC)N(C)C(=O)[C@@H](NC(=O)[C@H](C(C)C)N(C)C(=O)OCc1ccc(O[C@@H]2O[C@H](CO)[C@H](O)[C@H](O)[C@H]2O)c2cc(CCCC(=O)NCCOCCOCCOCCN=[N+]=[N-])oc12)C(C)C` (some centres unmarked) [Compound A-23] it was over 168 h.
For `CC[C@H](C)[C@@H]([C@@H](CC(=O)N1CCC[C@H]1[C@H](OC)[C@@H](C)C(=O)N[C@H](C)[C@@H](O)c1ccccc1)OC)N(C)C(=O)[C@@H](NC(=O)[C@H](C(C)C)N(C)C(=O)OCc1ccc(O[C@@H]2O[C@H](CO)[C@H](O)[C@H](O)[C@H]2O)c2cc(CCC(=O)NCCOCCOCCOCCN=[N+]=[N-])oc12)C(C)C` [Compound A-25], the half-life at 300 µM in data set [2] and in data set [4] was over 168 h each time. The half-life at 100 µM in data set [3] was over 168 h.
Consider `CCC(C)[C@@H]([C@@H](CC(=O)N1CCC[C@H]1[C@H](OC)[C@@H](C)C(=O)NC(Cc1ccccc1)C(=O)O)OC)N(C)C(=O)[C@@H](NC(=O)[C@H](C(C)C)N(C)C(=O)OCc1ccc(O[C@@H]2O[C@H](CO)[C@H](O)[C@H](O)[C@H]2O)c2cc(C(=O)O)[se]c12)C(C)C` (some centres unmarked) [Compound A-29] (X3-[NMeV]V[Dil(5ξ)][Dolaproine][ξF]-OH), for which the half-life at 100 µM in data set [3] was over 168 h.
With `CCC(C)[C@@H]([C@@H](CC(=O)N1CCC[C@H]1[C@H](OC)[C@@H](C)C(=O)NC(Cc1ccccc1)C(=O)O)OC)N(C)C(=O)[C@@H](NC(=O)[C@H](C(C)C)N(C)C(=O)OCc1ccc(O[C@@H]2O[C@H](CO)[C@H](O)[C@H](O)[C@H]2O)c2cc(C(=O)O)oc12)C(C)C` (some centres unmarked) [Compound A-24] (X4-[NMeV]V[Dil(5ξ)][Dolaproine][ξF]-OH), the half-life at 100 µM in data set [3] was over 168 h.
Take `CCC(C)[C@@H]([C@@H](CC(=O)N1CCC[C@H]1[C@H](OC)[C@@H](C)C(=O)NC(Cc1ccccc1)C(=O)O)OC)N(C)C(=O)[C@@H](NC(=O)[C@H](C(C)C)N(C)C(=O)OCc1ccc(O[C@@H]2O[C@H](CO)[C@H](O)[C@H](O)[C@H]2O)c2cc(Cn3cc(COCCOCCOCCOC)nn3)sc12)C(C)C` (some centres unmarked) [Compound A-19]: in data set [3], the half-life at 100 µM was over 168 h. Also, the half-life at 300 µM in data set [4] was over 168 h.
